Results taken from patent US4239903A, “2-Aminotetralin derivatives and process for producing the same” (priority 1977, dated 1980).
Structures can show the parent of a compound that is named as a salt. Where two headings read alike, the source gives them in different places.

Assays:
[1] = system: colonic contraction caused by stimulation of pelvic nerve; experiment: Effect on colonic contraction caused by stimulation of pelvic nerve in anesthetized dogs; assay type: in vivo, dog (mongrel dogs of both sexes); conditions: Canis lupus familiaris, iv; for inhibition in vivo at 0.1 mg/kg: read-out: % Inhibition of Colonic Contraction; for ED50: read-out: c.ID50 (dose causing 50% inhibition of the colonic contraction by pelvic nerve stimulation)
Description: The compounds of the present invention are extremely useful as medicines particularly acting on the lower digestive tract. […] N-Ethyl-N-[4-(3,4-dimethoxybenzoyloxy)butyl]-3-(4-methoxyphenyl)-2-propylamine hydrochloride (hereinafter referred to as "mebeverine") known as an antispasmodic for the lower digestive tract was used as a reference.
The values shown in Table 1 were obtained according to the following method [as disclosed in European Journal of Pharmacology, 18, pp. 1-14 (1972)].
Mongrel dogs of both sexes weighing 8-15 kg were used.
After intravenous anesthesizing with pentobarbital in a dose of 30 mg/kg, the animals were fixed on their back and subjected to ventrotomy along the midline of the lower abdomen. After a rubber balloon filled with water was inserted into the descending colon via the anus, 100 μg/kg of each compound was injected intravenously and changes in the internal pressure of the balloon were recorded on a polygraph through a low pressure transducer. Electric stimulation (rectangular wave, 50 cps in frequency, 1 msec in duration, 4 V in voltage) was applied to the pelvic nerve for 5 seconds every three minutes. The percent inhibition of the colonic contraction was calculated according to the following relationship. [formula]
c.ID50 values were determined by the same method as was used for Table 1.

[2] = Acute toxicity (LD50) in rats; conditions: rat, in vivo
[3] = Effect on colonic motility stimulated by neostigmine in rats; assay type: in vivo, rat (male STD Wistar strain); conditions: rat, in vivo
[4] = system: colonic motility stimulated by neostigmine; experiment: as above; assay type: in vivo, rat (male STD Wistar strain); conditions: Rattus norvegicus, neostigmine-stimulated, dose at which inhibition was observed in 50% of rats
[5] = system: contractile response of the stomach to vagal stimulation; experiment: Contractile response of the stomach to vagal stimulation in anesthetized dogs; assay type: in vivo, dog (mongrel dogs of both sexes); conditions: for ED50: Canis lupus familiaris, iv, read-out: s.ID50 (dose causing 50% inhibition of the contractile response of the stomach to vagal stimulation); for s.ID50 /c.ID50 (selectivity of antispasmodic effect): i.v., stomach vs colon
Description: The compounds of the present invention are further characterized by the following property. The compounds of the present invention have selectively stronger antispasmodic effect on the lower part of the digestive tract than on the upper part of the digestive tract, in contrast to conventional anticholinergic antispasmodics which act non-selectively on the digestive tract. The evidence for this selectivity is exemplified by the results shown for representative compounds of the present invention in Table 3. In Table 3, the s.ID50 and c.ID50 values represent the doses causing 50% inhibition of the contractile response of the stomach to vagal stimulation and 50% inhibition of the colonic contraction by pelvic nerve stimulation, respectively, in dogs. These values and their ratios (s.ID50 /c.ID50) indicate that these compounds have higher selectivity than mebeverine, as is clear from Table 3.
The determination of gastric motility was carried out according to the method described in European Journal of Pharmacology, 18, pp. 1-14 (1972).
More specifically mongrel dogs of both sexes weighing 8-15 kg were used. After anesthesizing the animals with 30 mg/kg (i.v.) of pentobarbital, the animals were fixed on their back and a midline incision was made in the upper abdomen. A rubber balloon filled with water was inserted into the stomach through an incision in the greater curvature. Changes in internal pressure of the balloon were recorded on a polygraph via a low pressure transducer. Electric stimulation (rectangular wave, 20 cps in frequency, 1 msec in duration, 8 V in voltage) was applied to the vagus nerve for 10 seconds every three minutes. The percent inhibition of the contractile response of the stomach was calculated from the relationship shown above.

[6] = 100 μg/kg, i.v., pelvic nerve stimulation, anesthetized dogs

SMILES	inhibition in vivo at 0.1 mg/kg [1, 6]	LD50 ([2]; iv)	LD50 ([2]; po)	safety margin (LD50/ED50) ([3]; iv)	safety margin (LD50/ED50) ([3]; po)	ED50 ([4]; iv)	ED50 ([4]; po)	ED50 ([1]; dogs)	ED50 ([5]; dogs)	s.ID50 /c.ID50 (selectivity of antispasmodic effect) ([5]; dogs)	inhibition in vivo at 0.1 mg/kg [1]	ED50 [1]	ED50 [5]
CCN(CCCCOC(=O)c1ccc(OC)c(OC)c1)C1CCc2ccccc2C1 (stereo not drawn) [Compound A, N-Ethyl-N-[4-(3,4-dimethoxybenzoyloxy)butyl]-1,2,3,4-tetrahydro-2-naphthylamine hydrochloride]	27.9%	–	–	–	–	–	–	–	–	–	–	–	–
CCN(CCCCCCOC(=O)c1ccc(OC)c(OC)c1)C1CCc2ccccc2C1.Cl (stereo not drawn) [Compound B, N-Ethyl-N-[6-(3,4-dimethoxybenzoyloxy)hexyl]-1,2,3,4-tetrahydro-2-naphthylamine hydrochloride]	56%	17.7 mg/kg	> 2000 mg/kg	206	> 364	0.086 mg/kg	5.5 mg/kg	–	–	–	–	–	–
CCN(CCCCOC(=O)c1ccc(OC)c(OC)c1)C1CCc2cc(OC)ccc2C1.Cl (stereo not drawn) [Compound C, N-Ethyl-N-[4-(3,4-dimethoxybenzoyloxy)butyl]-6-methoxy-1,2,3,4-tetrahydro-2-naphthylamine hydrochloride]	20%	19.3 mg/kg	> 2000 mg/kg	114	> 139	0.169 mg/kg	14.4 mg/kg	–	–	–	–	–	–
CCN(CCCCCCOC(=O)c1ccc(OC)c(OC)c1)C1CCc2cc(OC)ccc2C1.Cl (stereo not drawn) [Compound D, N-Ethyl-N-[6-(3,4-dimethoxybenzoyloxy)hexyl]-6-methoxy-1,2,3,4-tetrahydro-2-naphthylamine hydrochloride]	54.7%	35.3 mg/kg	2830 mg/kg	767	515	0.046 mg/kg	5.5 mg/kg	0.083 mg/kg	0.614 mg/kg	7.40	–	–	–
CCCN(CCCCOC(=O)c1ccc(OC)c(OC)c1)C1CCc2cc(OC)ccc2C1.Cl (stereo not drawn) [Compound E, N-Propyl-N-[4-(3,4-dimethoxybenzoyloxy)butyl]-6-methoxy-1,2,3,4-tetrahydro-2-naphthylamine hydrochloride]	22.4%	22.3 mg/kg	707 mg/kg	129	41	0.173 mg/kg	17.3 mg/kg	–	–	–	–	–	–
CCN(CCCCOC(=O)c1ccc(OC)c(OC)c1)C1CCc2cc(OC)c(OC)cc2C1.Cl (stereo not drawn) [Compound F, N-Ethyl-N-[4-(3,4-dimethoxybenzoyloxy)butyl]-6,7-dimethoxy-1,2,3,4-tetrahydro-2-naphthylamine hydrochloride]	63.8%	16.2 mg/kg	1540 mg/kg	648	280	0.025 mg/kg	5.5 mg/kg	0.057 mg/kg	0.266 mg/kg	4.67	–	–	–
CCN(CCCCCCOC(=O)c1ccc(OC)c(OC)c1)C1CCc2cc(OC)c(OC)cc2C1.Cl (stereo not drawn) [Compound G, N-Ethyl-N-[6-(3,4-dimethoxybenzoyloxy)hexyl]-6,7-dimethoxy-1,2,3,4-tetrahydro-2-naphthylamine hydrochloride]	54.2%	17.5 mg/kg	561 mg/kg	885	330	0.02 mg/kg	1.7 mg/kg	–	–	–	–	–	–
CCN(CCCCOC(=O)c1ccc(OC)c(OC)c1)C1CCc2ccc(OC)cc2C1 (stereo not drawn) [Compound H, N-Ethyl-N-[4-(3,4-dimethoxybenzoyloxy)butyl]-7-methoxy-1,2,3,4-tetrahydro-2-naphthylamine hydrochloride]	30.9%	–	–	–	–	–	–	–	–	–	–	–	–
CCN(CCCCOC(=O)c1ccc(OC)c(OC)c1)C1CCc2cccc(OC)c2C1 (stereo not drawn) [Compound K, N-Ethyl-N-[4-(3,4-dimethoxybenzoyloxy)butyl]-8-methoxy-1,2,3,4-tetrahydro-2-naphthylamine hydrochloride]	40%	–	–	–	–	–	–	–	–	–	–	–	–
COc1ccc2c(c1)CCC(N(CCCCOC(=O)c1ccc(OC)c(OC)c1)C(C)C)C2.Cl (stereo not drawn) [Compound L, N-Isopropyl-N-[4-(3,4-dimethoxybenzoyloxy)butyl]-6-methoxy-1,2,3,4-tetrahydro-2-naphthylamine hydrochloride]	–	–	1540 mg/kg	–	89	0.173 mg/kg	17.3 mg/kg	–	–	–	–	–	–
CCN(CCCCOC(=O)c1ccc(OC)c(OC)c1)C(C)Cc1ccc(OC)cc1.Cl (stereo not drawn) [Mebeverine, N-Ethyl-N-[4-(3,4-dimethoxybenzoyloxy)butyl]-3-(4-methoxyphenyl)-2-propylamine hydrochloride, reference compound]	–	17.7 mg/kg	1540 mg/kg	–	–	0.151 mg/kg	30 mg/kg	–	–	< 2.74	22%	> 0.3 mg/kg	0.823 mg/kg
